Measured values taken from patent US20240124487A1, “BRANCHED MACROCYCLIC 4-(PYRAZOL-5-YL)-INDOLE DERIVATIVES AS INHIBITORS OF MCL-1” (JANSSEN PHARMACEUTICA NV, priority 2020, published 2024).

Assays:
[1] = target: Myeloid Cell Leukemia 1 (Mcl-1) (Homo sapiens (Human), UniProt Q07820); test: Terbium labeled Mcl-1 HTRF binding assay (displacement of Cy5-labeled BIM BH3 peptide); conditions: 25 pM Tb-Mcl-1, 8 nM Cy5 Bim peptide, Ki=IC50/(1+[L]/Kd), [L]=8 nM, Kd=10 nM, read-out: TB-MCL1 Ki
Experimental: Terbium labeled Myeloid Cell Leukemia 1 (Mcl-1) homogeneous time-resolved fluorescence (HTRF) binding assay utilizing the BIM BH3 peptide (H2N-(C/Cy5Mal) WIAQELRRIGDEFN-OH) as the binding partner for Mcl-1.
This assay evaluated inhibition of the BH3 domain: Mcl-1 interaction by measuring the displacement of Cy5-labeled BIM BH3 peptide (H2N—(C/Cy5Mal) WIAQELRRIGDEFN-OH) in the HTRF assay format.
The following assay and stock buffers were prepared for use in the assay: (a) Stock buffer: 10 mM Tris-HCl, pH=7.5+150 mM NaCl, filtered, sterilized, and stored at 4° C.; and (b) 1× assay buffer, where the following ingredients were added fresh to stock buffer: 2 mM dithiothreitol (DTT), 0.0025% Tween-20, 0.1 mg/mL bovine serum albumin (BSA). The 1×Tb-Mcl-1+Cy5 Bim peptide solution was prepared by diluting the protein stock solution using the 1× assay buffer (b) to 25 pM Tb-Mcl-1 and 8 nM Cy5 Bim peptide.
Using the Acoustic ECHO, 100 nL of 100× test compound(s) were dispensed into individual wells of a white 384-well Perkin Elmer Proxiplate, for a final compound concentration of 1× and final DMSO concentration of 1%. Inhibitor control and neutral control (NC, 100 nL of 100% DMSO) were stamped into columns 23 and 24 of assay plate, respectively. Into each well of the plate was then dispensed 10 μL of the 1×Tb-Mcl-1+Cy5 Bim peptide solution. The plate was centrifuged with a cover plate at 1000 rpm for 1 minute, then incubated for 60 minutes at room temperature with plates covered. The TR-FRET signal was read on an BMG PHERAStar FSX MicroPlate Reader at room temperature using the HTRF optic module (HTRF: excitation: 337 nm, light source: laser, emission A: 665 nm, emission B: 620 nm, integration start: 60 μs, integration time: 400 pts).
The BMG PHERAStar FSX MicroPlate Reader was used to measure fluorescence intensity at two emission wavelengths—665 nm and 620 nm—and report relative fluorescence units (RFU) for both emissions, as well as a ratio of the emissions (665 nm/620 nm)*10,000. The RFU values were normalized to percent inhibition as follows:
% inhibition=(((NC−IC)−(compound−IC))/(NC−IC))*100
where IC (inhibitor control, low signal)=mean signal of 1×Tb-MC1-1+Cy5 Bim peptide+inhibitor control or 100% inhibition of Mcl-1; NC (neutral control, high signal)=mean signal 1×Tb-MC1-1+Cy5 Bim peptide with DMSO only or 0% inhibition
An 11-point dose response curve was generated to determine IC50 values (using GenData) based on the following equation:
Y=Bottom+(Top−Bottom)/(1+10^((log IC50−X)*HillSlope))
where Y=% inhibition in the presence of X inhibitor concentration; Top=100% inhibition derived from the IC (mean signal of Mcl-1+inhibitor control); Bottom=0% inhibition derived from the NC (mean signal of Mcl-1+DMSO); Hillslope=Hill coefficient; and IC50=concentration of compound with 50% inhibition in relation to top/neutral control (NC).
In this assay [L]=8 nM and Kd=10 nM
Representative compounds of the present invention were tested according to the procedure as described above, with results as listed in the Table below (n.d. means not determined).

[2] = test system: MOLP-8 human multiple myeloma cell line; test: MOLP8 Caspase-Glo 3/7 apoptosis induction assay; assay type: cell-based; conditions: MOLP-8 cells, 2 hours incubation at 37° C., averaged values over all runs on all batches
Description: MCL-1 is a regulator of apoptosis and is highly over-expressed in tumor cells that escape cell death. The assay evaluates the cellular potency of small-molecule compounds targeting regulators of the apoptosis pathway, primarily MCL-1, Bfl-1, Bcl-2, and other proteins of the Bcl-2 family. Protein-protein inhibitors disrupting the interaction of anti-apoptotic regulators with BH3-domain proteins initiate apoptosis.
The Caspase-Glo® 3/7 Assay is a luminescent assay that measures caspase-3 and -7 activities in purified enzyme preparations or cultures of adherent or suspension cells. The assay provides a proluminescent caspase-3/7 substrate, which contains the tetrapeptide sequence DEVD. This substrate is cleaved to release aminoluciferin, a substrate of luciferase used in the production of light. Addition of the single Caspase-Glo® 3/7 Reagent in an “add-mix-measure” format results in cell lysis, followed by caspase cleavage of the substrate and generation of a “glow-type” luminescent signal.
This assay uses the MOLP-8 human multiple myeloma cell line, which is sensitive to MCL-1 inhibition.
Materials: • Perkin Elmer Envision • Multidrop 384 and small volume dispensing cassettes • Centrifuge • Countess automated cell counter • Countess counting chamber slides • Assay plate: ProxiPlate-384 Plus, White 384-shallow well Microplate • Sealing tape: Topseal A plus • T175 culture flask
Cell cultures were maintained between 0.2 and 2.0×10^6 cells/mL. The cells were harvested by collection in 50 mL conical tubes. The cells were then pelleted at 500 g for 5 mins before removing supernatant and resuspension in fresh pre-warmed culture medium. The cells were counted and diluted as needed.
The assay reagent was prepared by transferring the buffer solution to the substrate vial and mixing. The solution may be stored for up to 1 week at 4° C. with negligible loss of signal.
Compounds were delivered in assay-ready plates (Proxiplate) and stored at −20° C.
Assays always include 1 reference compound plate containing reference compounds. The plates were spotted with 40 nL of compounds (0.5% DMSO final in cells; serial dilution; 30 μM highest conc. 1/3 dilution, 10 doses, duplicates). The compounds were used at room temperature and 4 μL of pre-warmed media was added to all wells except column 2 and 23. The negative control was prepared by adding 1% DMSO in media. The positive control was prepared by adding the appropriate positive control compound in final concentration of 60 μM in media. The plate was prepared by adding 4 μL negative control to column 23, 4 μL positive control to column 2 and 4 μL cell suspension to all wells in the plate. The plate with cells was then incubated at 37° C. for 2 hours. The assay signal reagent is the Caspase-Glo solution described above, and 8 μL was added to all wells. The plates were then sealed and measured after 30 minutes.
The activity of a test compound was calculated as percent change in apoptosis induction as follows: • LC=median of the Low Control values • =Central Reference in Screener • =DMSO • =0% • HC=Median of the High Control values • =Scale Reference in Screener • =30 μM of positive control • =100% apoptosis induction
% Effect (AC50)=100−((sample−LC)/(HC−LC))*100
% Control=(sample/HC)*100
% Control min=((sample−LC)/(HC−LC))*100

Sequence of Myeloid Cell Leukemia 1 (Mcl-1) (Q07820 whole entry): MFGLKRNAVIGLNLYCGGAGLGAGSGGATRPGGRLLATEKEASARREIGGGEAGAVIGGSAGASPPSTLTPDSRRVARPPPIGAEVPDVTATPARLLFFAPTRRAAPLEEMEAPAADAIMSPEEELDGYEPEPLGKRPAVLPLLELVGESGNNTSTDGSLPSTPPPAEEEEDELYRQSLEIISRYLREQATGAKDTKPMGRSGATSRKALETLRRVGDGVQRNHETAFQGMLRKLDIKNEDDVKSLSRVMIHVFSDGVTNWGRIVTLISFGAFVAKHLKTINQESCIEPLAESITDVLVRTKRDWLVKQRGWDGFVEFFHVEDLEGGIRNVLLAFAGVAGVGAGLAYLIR

Row | Structure (SMILES) | Ki [1] | AC50 [2] | AC50 ([2]; Homo sapiens, MOLP-8, 2 h)
1 | Cc1c(C(=O)O)n2c3ccc(Cl)c(c13)-c1c(nn(C)c1C)C(CC(C)O)OCc1cc(n(C)n1)CCc1cc(c3ccc(F)cc3c1)OCCC2 (single isomer, unassigned) [Compound 20] | 0.023 nM | 683 nM | –
2 | Cc1nn2c3c1-c1c(Cl)ccc4c1c(C)c(C(=O)O)n4CCCOc1cc(cc4cc(F)ccc14)CCc1cc(nn1C)CCC3OCC2 (centres unmarked) [Compound 29] | 0.302 nM | 146 nM | –
3 | Cc1c(C(=O)O)n2c3ccc(Cl)c(c13)-c1c(nn(C)c1C)C(CCO)OCc1cc(n(C)n1)CCc1cc(c3ccc(F)cc3c1)OCCC2 (centres unmarked) [Compound 6] | 0.009 nM | – | 52.7 nM
4 | COCC1OCc2cc(n(C)n2)CCc2cc(c3ccc(F)cc3c2)OCCCn2c(C(=O)O)c(C)c3c(c(Cl)ccc32)-c2c1nn(C)c2C (single isomer, unassigned) [Compound 15] | 0.048 nM | 66.1 nM | –
5 | COCCCC1OCc2cc(n(C)n2)CCc2cc(c3ccc(F)cc3c2)OCCCn2c(C(=O)O)c(C)c3c(c(Cl)ccc32)-c2c1nn(C)c2C (single isomer, unassigned) [Compound 12] | 0.015 nM | 57.8 nM | –
6 | Cc1c(C(=O)O)n2c3ccc(Cl)c(c13)-c1c(nn(C)c1C)C(C)OCc1cc(n(C)n1)CCc1cc(c3ccc(F)cc3c1)OCCC2 (single isomer, unassigned) [Compound 17] | 0.042 nM | 129 nM | –
7 | COc1ccc(COC2CCc3cc(n(C)n3)CCc3cc(c4ccc(F)cc4c3)OCCCn3c(C(=O)O)c(C)c4c(c(Cl)ccc43)-c3c2nn(C)c3C)cc1 (single isomer, unassigned) [Compound 23] | 0.073 nM | 169 nM | –
